Experimental data as given in PubChem BioAssay (NCI).
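All cell lines were grown in 96-well plates and treated with compound for 48 hours. TGI: concentration producing complete growth inhibition.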

Assays:
Assay in all cases: NCI-60 cell line screen, 48 h
A498 renal = test system: A498 renal
CAKI-1 renal = test system: CAKI-1 renal
PC-3 prostate = test system: PC-3 prostate
SN12C renal = test system: SN12C renal
SK-MEL-2 melanoma = test system: SK-MEL-2 melanoma
BT-549 breast = test system: BT-549 breast
KM12 colon = test system: KM12 colon
NCI-H226 lung = test system: NCI-H226 lung
MDA-MB-231 breast = test system: MDA-MB-231 breast
DU-145 prostate = test system: DU-145 prostate
IGROV1 ovarian = test system: IGROV1 ovarian
OVCAR-4 ovarian = test system: OVCAR-4 ovarian
NCI-H522 lung = test system: NCI-H522 lung
HOP-92 NSCLC = test system: HOP-92 NSCLC
NCI-H460 lung = test system: NCI-H460 lung
A549 NSCLC = test system: A549 NSCLC
UO-31 renal = test system: UO-31 renal
MALME-3M melanoma = test system: MALME-3M melanoma
ACHN renal = test system: ACHN renal
SW-620 colon = test system: SW-620 colon
HCC-2998 colon = test system: HCC-2998 colon
UACC-62 melanoma = test system: UACC-62 melanoma
786-0 renal = test system: 786-0 renal
NCI/ADR-RES ovarian = test system: NCI/ADR-RES ovarian
SK-MEL-5 melanoma = test system: SK-MEL-5 melanoma
K-562 leukemia = test system: K-562 leukemia
COLO 205 colon = test system: COLO 205 colon
U251 CNS = test system: U251 CNS
SK-OV-3 ovarian = test system: SK-OV-3 ovarian
SNB-75 CNS = test system: SNB-75 CNS
HT29 colon = test system: HT29 colon
MDA-N = test system: MDA-N
SNB-19 CNS = test system: SNB-19 CNS
MDA-MB-435 = test system: MDA-MB-435
SF-268 CNS = test system: SF-268 CNS
RPMI-8226 leukemia = test system: RPMI-8226 leukemia
SF-295 CNS = test system: SF-295 CNS
HCT-116 colon = test system: HCT-116 colon
EKVX NSCLC = test system: EKVX NSCLC
NCI-H23 lung = test system: NCI-H23 lung
SK-MEL-28 melanoma = test system: SK-MEL-28 melanoma
OVCAR-5 ovarian = test system: OVCAR-5 ovarian
MCF7 breast = test system: MCF7 breast
M14 melanoma = test system: M14 melanoma
HCT-15 colon = test system: HCT-15 colon
TK-10 renal = test system: TK-10 renal
RXF 393 renal = test system: RXF 393 renal
UACC-257 melanoma = test system: UACC-257 melanoma
MOLT-4 leukemia = test system: MOLT-4 leukemia
HL-60(TB) leukemia = test system: HL-60(TB) leukemia
OVCAR-8 ovarian = test system: OVCAR-8 ovarian
HOP-62 NSCLC = test system: HOP-62 NSCLC
LOX IMVI melanoma = test system: LOX IMVI melanoma
OVCAR-3 ovarian = test system: OVCAR-3 ovarian
CCRF-CEM leukemia = test system: CCRF-CEM leukemia
SR leukemia = test system: SR leukemia
T-47D breast = test system: T-47D breast

## COc1ccc(N2CC(=O)N(C(=O)COc3ccc(OCC(=O)N4C(=O)CN(c5ccc(OC)cc5)C4=S)cc3)C2=S)cc1
A498 renal
  TGI: > 100 µM
CAKI-1 renal
  TGI: > 100 µM
PC-3 prostate
  TGI: > 100 µM
SN12C renal
  TGI: > 100 µM
SK-MEL-2 melanoma
  TGI: > 100 µM
BT-549 breast
  TGI: > 100 µM
KM12 colon
  TGI: > 100 µM
NCI-H226 lung
  TGI: > 100 µM
MDA-MB-231 breast
  TGI: > 100 µM
DU-145 prostate
  TGI: > 100 µM
IGROV1 ovarian
  TGI: > 100 µM
OVCAR-4 ovarian
  TGI: > 100 µM
NCI-H522 lung
  TGI: > 100 µM
HOP-92 NSCLC
  TGI: > 100 µM
NCI-H460 lung
  TGI: > 100 µM
A549 NSCLC
  TGI: > 100 µM
UO-31 renal
  TGI: > 100 µM
MALME-3M melanoma
  TGI: > 100 µM
ACHN renal
  TGI: > 100 µM
SW-620 colon
  TGI: > 100 µM
HCC-2998 colon
  TGI: > 100 µM
UACC-62 melanoma
  TGI: > 100 µM
786-0 renal
  TGI: > 100 µM
NCI/ADR-RES ovarian
  TGI: > 100 µM
SK-MEL-5 melanoma
  TGI: > 100 µM
K-562 leukemia
  TGI: > 100 µM
COLO 205 colon
  TGI: > 100 µM
U251 CNS
  TGI: > 100 µM
SK-OV-3 ovarian
  TGI: > 100 µM
SNB-75 CNS
  TGI: > 100 µM
HT29 colon
  TGI: > 100 µM
MDA-N
  TGI: > 100 µM
SNB-19 CNS
  TGI: > 100 µM
MDA-MB-435
  TGI: > 100 µM
SF-268 CNS
  TGI: > 100 µM
RPMI-8226 leukemia
  TGI: > 100 µM
SF-295 CNS
  TGI: > 100 µM
HCT-116 colon
  TGI: 63.3 µM
EKVX NSCLC
  TGI: > 100 µM
NCI-H23 lung
  TGI: > 100 µM
SK-MEL-28 melanoma
  TGI: > 100 µM
OVCAR-5 ovarian
  TGI: > 100 µM
MCF7 breast
  TGI: > 100 µM
M14 melanoma
  TGI: > 100 µM
HCT-15 colon
  TGI: > 100 µM
TK-10 renal
  TGI: > 100 µM
RXF 393 renal
  TGI: > 100 µM
UACC-257 melanoma
  TGI: > 100 µM
MOLT-4 leukemia
  TGI: > 100 µM

## COc1cc(/C=C2\C(=O)N(c3cccc([N+](=O)[O-])c3)C(c3ccccc3)S2(=O)=O)cc(OC)c1OC (stereo not given)
A498 renal
  TGI: > 100 µM
CAKI-1 renal
  TGI: > 100 µM
PC-3 prostate
  TGI: > 100 µM
SN12C renal
  TGI: > 100 µM
SK-MEL-2 melanoma
  TGI: > 100 µM
BT-549 breast
  TGI: > 100 µM
KM12 colon
  TGI: > 100 µM
NCI-H226 lung
  TGI: > 100 µM
MDA-MB-231 breast
  TGI: > 100 µM
DU-145 prostate
  TGI: > 100 µM
IGROV1 ovarian
  TGI: > 100 µM
OVCAR-4 ovarian
  TGI: > 100 µM
NCI-H522 lung
  TGI: > 100 µM
HOP-92 NSCLC
  TGI: > 100 µM
NCI-H460 lung
  TGI: > 100 µM
A549 NSCLC
  TGI: > 100 µM
UO-31 renal
  TGI: > 100 µM
HL-60(TB) leukemia
  TGI: > 100 µM
MALME-3M melanoma
  TGI: > 100 µM
ACHN renal
  TGI: > 100 µM
SW-620 colon
  TGI: > 100 µM
HCC-2998 colon
  TGI: > 100 µM
UACC-62 melanoma
  TGI: > 100 µM
OVCAR-8 ovarian
  TGI: > 100 µM
786-0 renal
  TGI: > 100 µM
NCI/ADR-RES ovarian
  TGI: > 100 µM
SK-MEL-5 melanoma
  TGI: > 100 µM
K-562 leukemia
  TGI: > 100 µM
COLO 205 colon
  TGI: > 100 µM
HOP-62 NSCLC
  TGI: > 100 µM
LOX IMVI melanoma
  TGI: > 100 µM
U251 CNS
  TGI: > 100 µM
SK-OV-3 ovarian
  TGI: > 100 µM
SNB-75 CNS
  TGI: > 100 µM
OVCAR-3 ovarian
  TGI: > 100 µM
HT29 colon
  TGI: > 100 µM
CCRF-CEM leukemia
  TGI: > 100 µM
MDA-N
  TGI: > 100 µM
SR leukemia
  TGI: > 100 µM
SNB-19 CNS
  TGI: > 100 µM
MDA-MB-435
  TGI: > 100 µM
RPMI-8226 leukemia
  TGI: > 100 µM
SF-295 CNS
  TGI: > 100 µM
HCT-116 colon
  TGI: > 100 µM
EKVX NSCLC
  TGI: > 100 µM
NCI-H23 lung
  TGI: > 100 µM
T-47D breast
  TGI: > 100 µM
SK-MEL-28 melanoma
  TGI: > 100 µM
OVCAR-5 ovarian
  TGI: > 100 µM
MCF7 breast
  TGI: > 100 µM
M14 melanoma
  TGI: > 100 µM
HCT-15 colon
  TGI: > 100 µM
TK-10 renal
  TGI: > 100 µM
RXF 393 renal
  TGI: > 100 µM
UACC-257 melanoma
  TGI: > 100 µM
MOLT-4 leukemia
  TGI: > 100 µM
